The values below come from PubChem BioAssay AID1743 (Vanderbilt High Throughput Screening Facility, 2009).

Muscarinic acetylcholine receptor M1 (Rattus norvegicus), sequence (P08482 whole entry Y381A, looked up): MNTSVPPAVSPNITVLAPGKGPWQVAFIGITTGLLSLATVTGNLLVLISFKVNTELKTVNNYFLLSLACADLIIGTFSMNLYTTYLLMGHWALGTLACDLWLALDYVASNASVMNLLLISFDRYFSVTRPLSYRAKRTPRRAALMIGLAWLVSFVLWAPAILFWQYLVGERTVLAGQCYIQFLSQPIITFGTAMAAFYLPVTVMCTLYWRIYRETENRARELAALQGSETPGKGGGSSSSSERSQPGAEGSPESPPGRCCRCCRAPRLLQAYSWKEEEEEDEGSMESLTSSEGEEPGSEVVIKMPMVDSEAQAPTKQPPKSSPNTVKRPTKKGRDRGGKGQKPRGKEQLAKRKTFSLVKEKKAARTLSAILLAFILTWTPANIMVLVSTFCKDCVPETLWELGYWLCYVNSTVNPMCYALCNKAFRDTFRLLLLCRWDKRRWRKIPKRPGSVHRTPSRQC

The assay addresses Muscarinic acetylcholine receptor M1 (Rattus norvegicus) (UniProt P08482). The assay can be described thus: activation of mutant rat M1 receptor calcium signal, mechanism study for M1 allosteric modulator project, cell-based, Y381A mutant, CHO-K1 (AID 1743). The following applies: Fluo-4 calcium flux.
As to `CCOC(=O)N1CCC(NCCNC(=O)c2cccs2)CC1`, the EC50 is 1230 nM.

For `CCOC(=O)N1CCC(NCCNC(=O)c2ccccc2)CC1`, the EC50 is 304 nM.

Take `CCOC(=O)N1CCC(NCCNC(=O)c2ccccc2C)CC1`: the concentration giving a half-maximal response (EC50) was 379 nM.
